One test deals with hMC1R (Homo sapiens, UniProt Q01726). As to the kind of experiment: Human MC1R radioligand binding assay. To be noted: hMCR binding selectivity, [125I] NDP-MSH, membranes. On the procedure: (§1) • Na^125I (0.5 mCi, 17.4 Ci/mg) was added to 50 μL sodium phosphate (50 mM, pH7.4) in an eppendorf tube precoated with IODOGEN. After incubation for 10 mins the phosphate buffer containing the iodine was added to NDP-MSH (10 ul at 1 mg/mL) in a separate eppendorf tube. This was incubated for a further 10 mins. The iodinated NDP-MSH was purified by HPLC on a Zorbax SB 300 column using solvent A: 0.05% TFA and solvent B: 90% acetonitrile 0.045% TFA with a linear gradient, 0-67% B over 60 mins. […] Resuspended membranes were kept on ice until they were added to the wells of the plate. Binding Protocol for 400 microassays per vial: • Assays were performed in 96 well polypropylene plates. […] This was incubated for 1 hr at 37° C.
hMC1R, sequence (Q01726 whole entry): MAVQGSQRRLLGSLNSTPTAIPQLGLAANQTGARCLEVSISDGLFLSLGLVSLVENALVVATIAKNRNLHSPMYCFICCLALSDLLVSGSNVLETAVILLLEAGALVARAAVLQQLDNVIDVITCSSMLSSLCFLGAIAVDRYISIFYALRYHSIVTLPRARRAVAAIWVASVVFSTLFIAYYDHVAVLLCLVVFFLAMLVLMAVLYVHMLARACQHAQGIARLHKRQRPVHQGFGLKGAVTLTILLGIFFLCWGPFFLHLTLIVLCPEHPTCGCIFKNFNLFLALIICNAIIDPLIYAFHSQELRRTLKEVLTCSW
(§2) Radioligand binding assays were carried out using commercial or in-house prepared hMC1R, hMC3R and hMC4R membranes and [125I]
(§3) The homogenisation and ice incubation was repeated three times. The mixture was then centrifuged at 1260×g for 5 mins. […] This was centrifuged at 30,000×g for 90 mins at 4° C.

In the next test the target is hMC3R (Homo sapiens, UniProt P41968). Put plainly: Human MC3R radioligand binding assay. As to conditions: hMCR binding selectivity, [125I] NDP-MSH, membranes. The procedure:
as §1, §2, §3

Another test has as its target hMC4R (Homo sapiens, UniProt P32245). As to the kind of experiment: Human MC4R radioligand binding assay. As to conditions: hMCR binding selectivity, [125I] NDP-MSH, membranes. On the procedure:
as §1, §2, §3

The target in the next test is T1, mouse MC5R (membrane) (Mus musculus, UniProt P41149).
T1 construct: purchased Euroscreen
T1 sequence (P41149 whole entry): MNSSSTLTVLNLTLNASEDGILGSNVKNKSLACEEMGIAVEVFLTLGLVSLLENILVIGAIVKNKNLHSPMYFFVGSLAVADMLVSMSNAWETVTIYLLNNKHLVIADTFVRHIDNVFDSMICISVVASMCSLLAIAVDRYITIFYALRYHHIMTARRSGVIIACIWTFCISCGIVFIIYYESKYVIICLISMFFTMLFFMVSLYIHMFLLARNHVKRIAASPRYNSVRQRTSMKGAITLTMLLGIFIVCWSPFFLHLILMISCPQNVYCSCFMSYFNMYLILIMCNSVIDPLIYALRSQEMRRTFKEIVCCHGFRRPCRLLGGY
As to the kind of experiment: MC5R radioligand binding, mouse MC5R membranes.

Test [1] deals with T2, rhesus monkey MC5R (membranes) (Macaca mulatta, UniProt A0A5F8AEA9).
T2 construct: expressed in transfected cells
T2 sequence (A0A5F8AEA9 1-325): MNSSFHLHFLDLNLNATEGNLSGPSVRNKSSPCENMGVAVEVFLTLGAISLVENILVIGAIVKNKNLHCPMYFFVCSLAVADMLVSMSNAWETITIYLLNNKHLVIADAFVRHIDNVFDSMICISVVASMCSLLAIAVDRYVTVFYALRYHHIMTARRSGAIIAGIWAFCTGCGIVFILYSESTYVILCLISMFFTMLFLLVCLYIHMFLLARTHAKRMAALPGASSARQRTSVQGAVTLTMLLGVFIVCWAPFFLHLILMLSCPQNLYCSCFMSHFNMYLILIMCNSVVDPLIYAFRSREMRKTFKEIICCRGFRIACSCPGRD
As to the kind of experiment: MC5R radioligand binding, rhesus monkey MC5R membranes.

Test [2] has as its target T3, rhesus monkey MC5R (whole cells) (Macaca mulatta, UniProt A0A5F8AEA9).
T3 construct: expressed in transfected cells
Put plainly: MC5R radioligand binding, rhesus monkey MC5R whole cells.

A further test addresses T4, human MC5R (hMC5R) (Homo sapiens, UniProt P33032).
T4 construct: purchased Perkin Elmer RBXMC5M400UA
As to the kind of experiment: Human MC5R radioligand binding assay (membranes, [125I] NDP-MSH displacement). The method, boiled down:
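Displacement of [125I]NDP-MSH (radioiodinated in house, HPLC-purified) from hMC5R membranes by test compound measured after 1 hr incubation at 37° C.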

Test [3] deals with T5, human MC5R (Homo sapiens, UniProt P33032).
T5 construct: host or cells: HEK 293
T5 sequence (P33032 whole entry): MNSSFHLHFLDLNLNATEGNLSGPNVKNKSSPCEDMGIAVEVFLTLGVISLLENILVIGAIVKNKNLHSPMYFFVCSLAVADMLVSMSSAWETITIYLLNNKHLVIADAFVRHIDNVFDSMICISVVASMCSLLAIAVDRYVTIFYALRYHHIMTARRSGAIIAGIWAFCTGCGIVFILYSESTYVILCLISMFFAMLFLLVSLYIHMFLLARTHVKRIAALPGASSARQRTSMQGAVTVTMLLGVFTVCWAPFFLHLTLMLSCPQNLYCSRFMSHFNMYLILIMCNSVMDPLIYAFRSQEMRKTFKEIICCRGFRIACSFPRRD
Put plainly: cAMP stimulation assay, agonism, HEK 293 cells expressing human MC5R. It counts as cell-based.
Protocol: (§4) The mammalian cell line, human embryonic kidney cells (HEK 293), were maintained in Dulbeccos Modified Eagle's medium (DMEM) with 5% fetal bovine serum (BSA), L-glutamine, high glucose and antibiotics/antimycotics. On the day prior to transfection, cells were passaged using trypsin/EDTA and seeded into 75 cm^2 flasks so that they would be approximately 90% confluent the next day. The next day, the cell media was replaced with fresh antibiotic/antimycotic-containing DMEM. Approximately 100 μl of the transfection lipid Turbofectin 8.0 (Origene Technologies, MD, USA), was diluted in 1.0 mL of serum and antibiotic/antimycotic-free OptiMEM in a sterile 15 mL tube and incubated for 5 mins at room temperature. […]
(§5) Basal level (of cAMP) control wells contained stimulation buffer only (no agonist or compounds). […] After incubation, 10 μl of lysis buffer (10% Tween 20, 1 M HEPES, 0.1% BSA, protease inhibitors, ddH2O) was added to all wells to be measured. […] 5 μl of diluted acceptor beads were added to each well to be measured, then the plate was incubated for 30 mins at room temperature, in the dark, with gentle shaking. […] Plates were read on an Envision plate reader (Perkin Elmer) after 1 hr and ˜16hrs incubation. cAMP concentration in the cells was determined by the use of a ‘standard curve’ generated from the output of known cAMP concentrations as described below. […]

Test [4] has as its target T5, human MC5R. As to the kind of experiment: cAMP assay, antagonism of alpha-MSH, HEK 293 cells expressing human MC5R. The class given is cell-based. As to conditions: antagonism of 10^−6 M alpha-MSH. A general note: Changes in cAMP serve as a functional read-out for many G protein-coupled receptors.
Protocol: as §4, §5
Another test deals with sebum excretion. As to conditions: oral, after 8-12 weeks of therapy; cited from earlier work.

One may read the IC50 as the concentration that gives 50% inhibition. One may read the EC50 as the midpoint of the concentration-response curve.

Like-named read-outs stand apart in the source and are kept apart here.

hMC3R, sequence (P41968 whole entry): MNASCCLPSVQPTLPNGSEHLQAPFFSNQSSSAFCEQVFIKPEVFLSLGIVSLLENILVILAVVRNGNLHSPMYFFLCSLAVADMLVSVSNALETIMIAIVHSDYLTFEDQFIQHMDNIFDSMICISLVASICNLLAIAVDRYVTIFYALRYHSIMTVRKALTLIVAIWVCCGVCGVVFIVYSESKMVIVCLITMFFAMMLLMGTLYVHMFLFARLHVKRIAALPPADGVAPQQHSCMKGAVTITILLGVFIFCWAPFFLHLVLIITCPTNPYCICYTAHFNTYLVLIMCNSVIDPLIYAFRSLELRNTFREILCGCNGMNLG
hMC4R, sequence (P32245 whole entry): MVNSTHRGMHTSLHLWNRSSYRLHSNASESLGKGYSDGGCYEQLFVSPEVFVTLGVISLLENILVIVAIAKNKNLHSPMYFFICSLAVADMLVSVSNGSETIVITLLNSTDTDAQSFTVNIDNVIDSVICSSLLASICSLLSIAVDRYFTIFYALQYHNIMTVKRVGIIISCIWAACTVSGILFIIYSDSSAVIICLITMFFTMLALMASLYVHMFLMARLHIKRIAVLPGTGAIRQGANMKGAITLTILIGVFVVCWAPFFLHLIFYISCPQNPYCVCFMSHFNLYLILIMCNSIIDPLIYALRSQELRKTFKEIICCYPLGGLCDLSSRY
T4 sequence (P33032 whole entry): as the sequence (P33032 whole entry) above
T3 sequence (A0A5F8AEA9 1-325): as the sequence (A0A5F8AEA9 1-325) above

On to `O=C(/C=C/c1ccc(Cl)cc1)NC[C@@H]1CCN(CC(c2ccccc2)c2ccccc2)C(=O)[C@H](CCN2CCCCC2)N1` [Compound 33, (E)-3-(4-chlorophenyl)-N-(((3S,5S)-1-(2,2-diphenylethyl)-2-oxo-3-(2-(piperidin-1-yl)ethyl)-1,4-diazepan-5-yl)methyl)acrylamide], for which the IC50 at hMC1R was found to be 2.85 µM; at hMC3R, 1.5 µM; on hMC4R, 6.06 µM.
As to `N=C(N)NCCC[C@@H]1N[C@H](CNC(=O)c2ccc3ccccc3c2)CCN(CC(c2ccccc2)c2ccccc2)C1=O` [Compound 105, N-(((3S,5S)-1-(2,2-diphenylethyl)-3-(3-guanidinopropyl)-2-oxo-1,4-diazepan-5-yl)methyl)-2-naphthamide], the IC50 on mouse MC5R (membrane) came out at 4 µM; in test [1] it was 6.03 µM; in test [2] it was 3 µM; on hMC1R, 6.66 µM; on hMC4R it was 3.28 µM.
In the case of `CCC(CC)CN1CC[C@@H](CNC(=O)/C=C/c2ccc(Cl)cc2)N[C@@H](CCN2CCCCC2)C1=O` [Compound 331, (E)-3-(4-chlorophenyl)-N-(((3S,5S)-1-(2-ethylbutyl)-2-oxo-3-(2-(piperidin-1-yl)ethyl)-1,4-diazepan-5-yl)methyl)acrylamide], the IC50 is under 1 µM on human MC5R (hMC5R) (hMC5R binding, tested as trifluoroacetate or hydrochloride salts, or free bases, read-out: MC5R radioligand IC50); 0.15 µM at human MC5R (hMC5R) (hMCR binding selectivity, [125I] NDP-MSH, membranes, read-out: human MC5R IC50); 1.83 µM on hMC3R; 0.094 µM on human MC5R [4]. The compound further yielded an EC50 on human MC5R [3] of over 10 µM.
Regarding `CC1=C(/C=C/C(C)=C/C=C/C(C)=C\C(=O)O)C(C)(C)CCC1` [isotretinoin], the “reduction of sebum excretion” value in the test with sebum excretion is “up to 90%”.

These data come from patent US8008291B2 (Mimetica Pty Ltd, priority 2008, dated 2011).
